Assay results reported in paper PMC7031697, “Mechanism of Activation of AMPK by Cordycepin” (Cell Chemical Biology, 2020).

System: HepG2 cells
Experiment: MTT assay for cell proliferation
Format: cell-based, human
Experimental: After treatment for the specified time, the effect of cordycepin on cell proliferation was determined using the MTT assay kit (Abcam, ab211091) as per manufacturers’ instructions.

Nc1ncnc2c1ncn2[C@@H]1O[C@H](CO)C[C@H]1O [cordycepin, 3′-deoxyadenosine]
effect on cell proliferation (30 μM, after 72 h): only very small effects | decrease in cell proliferation (100 μM, after 72 h): 30% | effect on cell proliferation (300 μM): completely prevented cell proliferation | effect on cell proliferation (1 mM): completely prevented cell proliferation
